Laboratory results taken from the supplement of paper PMC10883282.
± gives the standard deviation of the averaged measurements.

Experiments:
Experiment in all cases: relative viability vs DMSO control (72 h) (fraction); higher = more viable cells
[1] = system: G401
Outline: (§1)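 Sarcoma cell lines were seeded in 384-well plates at densities chosen for 80–90% confluence, then 24 h later given 2.5 µl of serially diluted compound drawn from source plates spanning 10 mM to 0.0002 mM. They were held 72 h at 37 °C, 5% CO2, with 0.1% DMSO vehicle and a 5 µM positive control included. Relative viability was read with ATPLite as percent growth and averaged over up to triplicate wells. Rescaling placed full at 1 and none at 0.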

[2] = system: A204
Outline: as §1

[3] = system: SYO-1
Outline: as §1

[4] = system: SW872
Outline: as §1

[5] = system: KHOS-NP
Outline: as §1

[6] = system: MES-SA
Outline: as §1

[7] = system: HT1080
Outline: as §1

[8] = system: SK-LMS-1
Outline: as §1

[9] = system: HS729
Outline: as §1

[10] = system: SW684
Outline: as §1

[11] = system: SW1353
Outline: as §1

[12] = system: VA-ES-BJ
Outline: as §1

CNC(=O)c1c(C)oc2cc(Oc3ncnc4cc(OC)c(OC)cc34)ccc12 [Fruquintinib]
Conditions	relative viability
[1], 0.00017 µM	0.988 ± 0.017
[1], 0.00051 µM	1.02 ± 0.065
[1], 0.00152 µM	1.02 ± 0.064
[1], 0.00457 µM	0.986 ± 0.029
[1], 0.01372 µM	1.03 ± 0.051
[1], 0.04115 µM	1.01 ± 0.019
[1], 0.1235 µM	0.965 ± 0.025
[1], 0.3704 µM	0.953 ± 0.035
[1], 1.111 µM	0.9 ± 0.058
[1], 3.333 µM	0.698 ± 0.0094
[1], 10 µM	0.57 ± 0.029
[2], 0.00017 µM	1.06 ± 0.031
[2], 0.00051 µM	1.09 ± 0.021
[2], 0.00152 µM	1.05 ± 0.034
[2], 0.00457 µM	1.05 ± 0.022
[2], 0.01372 µM	1.06 ± 0.029
[2], 0.04115 µM	0.999 ± 0.061
[2], 0.1235 µM	0.967 ± 0.032
[2], 0.3704 µM	0.73 ± 0.019
[2], 1.111 µM	0.409 ± 0.024
[2], 3.333 µM	0.32 ± 0.021
[2], 10 µM	0.258 ± 0.031
[3], 0.00017 µM	1.01 ± 0.038
[3], 0.00051 µM	1.034 ± 0.003
[3], 0.00152 µM	0.971 ± 0.036
[3], 0.00457 µM	0.963 ± 0.068
[3], 0.01372 µM	0.921 ± 0.039
[3], 0.04115 µM	0.918 ± 0.043
[3], 0.1235 µM	0.817 ± 0.046
[3], 0.3704 µM	0.651 ± 0.024
[3], 1.111 µM	0.498 ± 0.059
[3], 3.333 µM	0.417 ± 0.043
[3], 10 µM	0.402 ± 0.05
[4], 0.00017 µM	1.09 ± 0.03
[4], 0.00051 µM	1.06 ± 0.028
[4], 0.00152 µM	1.03 ± 0.028
[4], 0.00457 µM	1.04 ± 0.02
[4], 0.01372 µM	1.03 ± 0.05
[4], 0.04115 µM	0.988 ± 0.071
[4], 0.1235 µM	1 ± 0.022
[4], 0.3704 µM	0.963 ± 0.075
[4], 1.111 µM	0.9736 ± 0.0084
[4], 3.333 µM	0.893 ± 0.053
[4], 10 µM	0.852 ± 0.037
[5], 0.00017 µM	1.114 ± 0.0078
[5], 0.00051 µM	1.11 ± 0.037
[5], 0.00152 µM	1.11 ± 0.036
[5], 0.00457 µM	1.09 ± 0.013
[5], 0.01372 µM	1.11 ± 0.031
[5], 0.04115 µM	1.099 ± 0.01
[5], 0.1235 µM	1.08 ± 0.011
[5], 0.3704 µM	1.07 ± 0.027
[5], 1.111 µM	1.07 ± 0.024
[5], 3.333 µM	1.03 ± 0.028
[5], 10 µM	1.027 ± 0.0046
[6], 0.00017 µM	0.96 ± 0.019
[6], 0.00051 µM	0.975 ± 0.029
[6], 0.00152 µM	0.943 ± 0.04
[6], 0.00457 µM	0.935 ± 0.037
[6], 0.01372 µM	0.947 ± 0.02
[6], 0.04115 µM	0.9442 ± 0.0073
[6], 0.1235 µM	0.922 ± 0.034
[6], 0.3704 µM	0.929 ± 0.03
[6], 1.111 µM	0.9218 ± 0.0043
[6], 3.333 µM	0.855 ± 0.022
[6], 10 µM	0.806 ± 0.036
[7], 0.00017 µM	1.08 ± 0.038
[7], 0.00051 µM	1.06 ± 0.031
[7], 0.00152 µM	1.058 ± 0.0099
[7], 0.00457 µM	1.04 ± 0.034
[7], 0.01372 µM	1.07 ± 0.05
[7], 0.04115 µM	1.04 ± 0.026
[7], 0.1235 µM	1.03 ± 0.035
[7], 0.3704 µM	1.04 ± 0.03
[7], 1.111 µM	1.054 ± 0.0096
[7], 3.333 µM	1.02 ± 0.026
[7], 10 µM	1.01 ± 0.036
[8], 0.00017 µM	1.11 ± 0.037
[8], 0.00051 µM	1.1 ± 0.024
[8], 0.00152 µM	1.106 ± 0.0049
[8], 0.00457 µM	1.1 ± 0.024
[8], 0.01372 µM	1.1 ± 0.045
[8], 0.04115 µM	1.07 ± 0.066
[8], 0.1235 µM	1.07 ± 0.033
[8], 0.3704 µM	1.04 ± 0.051
[8], 1.111 µM	1.01 ± 0.055
[8], 3.333 µM	0.976 ± 0.07
[8], 10 µM	0.991 ± 0.06
[9], 0.00017 µM	1.09 ± 0.055
[9], 0.00051 µM	1 ± 0.042
[9], 0.00152 µM	0.959 ± 0.079
[9], 0.00457 µM	0.961 ± 0.082
[9], 0.01372 µM	0.908 ± 0.054
[9], 0.04115 µM	0.927 ± 0.025
[9], 0.1235 µM	0.896 ± 0.053
[9], 0.3704 µM	0.852 ± 0.035
[9], 1.111 µM	0.794 ± 0.067
[9], 3.333 µM	0.717 ± 0.019
[9], 10 µM	0.657 ± 0.045
[10], 0.00017 µM	1.15 ± 0.028
[10], 0.00051 µM	1.12 ± 0.012
[10], 0.00152 µM	1.16 ± 0.06
[10], 0.00457 µM	1.18 ± 0.016
[10], 0.01372 µM	1.15 ± 0.053
[10], 0.04115 µM	1.15 ± 0.038
[10], 0.1235 µM	1.1 ± 0.042
[10], 0.3704 µM	1.13 ± 0.04
[10], 1.111 µM	1.12 ± 0.023
[10], 3.333 µM	1.09 ± 0.029
[10], 10 µM	1.07 ± 0.038
[11], 0.00017 µM	1.051 ± 0.005
[11], 0.00051 µM	1.02 ± 0.033
[11], 0.00152 µM	1.02 ± 0.039
[11], 0.00457 µM	1.01 ± 0.031
[11], 0.01372 µM	1.02 ± 0.052
[11], 0.04115 µM	1.01 ± 0.04
[11], 0.1235 µM	0.997 ± 0.04
[11], 0.3704 µM	0.925 ± 0.063
[11], 1.111 µM	0.863 ± 0.05
[11], 3.333 µM	0.746 ± 0.028
[11], 10 µM	0.763 ± 0.029
[12], 0.00017 µM	1.05 ± 0.011
[12], 0.00051 µM	1.02 ± 0.035
[12], 0.00152 µM	1.03 ± 0.014
[12], 0.00457 µM	1 ± 0.021
[12], 0.01372 µM	0.997 ± 0.033
[12], 0.04115 µM	1.01 ± 0.028
[12], 0.1235 µM	0.996 ± 0.023
[12], 0.3704 µM	1.03 ± 0.023
[12], 1.111 µM	0.995 ± 0.018
[12], 3.333 µM	0.953 ± 0.034
[12], 10 µM	0.936 ± 0.029
